Assay results published in PubChem BioAssay AID2060501 (Molecular Pharmacology Branch, DTP, NCI, 2025).

Test system: 282377-053-R-J1-PDC complex spheroids, viability
Experiment: Anticancer human tumor 282377-053-R-J1-PDC patient-derived colon adenocarcinoma cell line growth inhibition [GQUAD]
Settings: for IC50: curve of first compound; for viability, T/C: stronger effect = lower value
Source text: DNA G-quadruplex Stabilizer Agents in Combinations in Complex Spheroids
A high-throughput screen of multi-cell type tumor spheroids was designed to identify active combinations of DNA G-quadruplex stabilizer agents and targeted small molecules. Complex spheroids include a stromal component modeled by human endothelial cells (HUVEC) and fibroblasts modeled by human mesenchymal stem cells (MSCs). The concentration ranges selected for each drug and investigational agent were based upon clinically achievable concentrations if the clinical Cmax of the agent was known.
Compounds. The drugs and investigational agents: pidnarulex (CX-5461; NSC782164), APTO-253 (NSC789042), BRACO-19 (NSC847499), peposertib (NSC802822), ceralasertib (NSC780249), elimusertib (NSC800525), camonsertib (NSC841442), AZD-1390 (NSC803789), olaparib (NSC753686), talazoparib (NSC767125), ART-558 (NSC835418), sotorasib (NSC818433), MRTX-1133 (NSC836407), SN-38 (NSC673596), topotecan (NSC609699), etoposide (NSC141540), doxorubicin (NSC123127), gemcitabine (NSC613327), 5-fluorouracil (NSC19893), paclitaxel (NSC125973), vemurafenib (NSC761431), panobinostat (NSC761190), R-306465 (JNJ-16241199; NSC773264), adavosertib (NSC754352), TP-3654 (NSC805149), carboplatin (NSC241240), KSQ-4279 (NSC840948), and staurosporine (NSC755774) were obtained from the National Cancer Institute (NCI) Developmental Therapeutics Program Chemical Repository (34). The FDA-approved anticancer drug set is available from the NCI Developmental Therapeutics Program. […] The stock solutions were prepared in dimethyl sulfoxide (DMSO, Sigma-Aldrich, St. Louis, MO, cat. D2650) at 800-fold the tested concentration and stored at -70 degrees C prior to their use. All drugs and investigational agents were tested over a range starting from a high concentration at or near the clinical Cmax and decreasing in half-log increments. If the clinical Cmax for an agent had not been determined, the highest concentration tested was 10 microM.
2.3 Cell Culture. All cells were maintained in an incubator at 37 degrees C and 5% CO2 with 95% humidity. The PDC lines were cultured according to standard operating procedures established by the NCI PDMR. All PDCs were thawed and cultured in Matrigel-coated flasks prepared with a working solution of 1X Ham's F-12 nutrient mix, without supplementation (Invitrogen, cat. 11765054), 100 U/mL penicillin-streptomycin (Invitrogen, cat. 15140122), and 2.5% Matrigel (Corning Inc., cat. 354248) for the first three passages. The 857933-349-R-J2-PDC line was cultured in 6C/Colon 1B media, which includes advanced DMEM/F-12 (Thermo Fisher Scientific, cat. 12634028), 10 mM HEPES (Thermo Fisher Scientific, cat. 15630080), 1X GlutaMAX supplement (Thermo Fisher Scientific, cat. 35050061), 0.1 mg/mL primocin (InvivoGen, cat. ant-pm-2), 10% defined fetal bovine serum, heat inactivated (HyClone Laboratories Inc., cat. SH30070.03HI), 50% L-WRN conditioned media (ATCC, cat. CRL-3276), 1.25 mM N-Acetyl-L-cysteine (Sigma-Aldrich, cat. A9165), 10 mM nicotinamide (Sigma-Aldrich, cat. N0636), 1X B-27 supplement (Thermo Fisher Scientific, cat. 17504044), 1X N-2 supplement (Thermo Fisher Scientific, cat. 17502048), 10 microM Y-27632 dihydrochloride (Tocris Bioscience, cat. 1254), and 50 ng/mL human EGF recombinant protein (Thermo Fisher Scientific, cat. PHG0311). The 485176-168-R4-J1-PDC line was cultured in Panc media, which includes all 6C/Colon 1B media components plus 100 ng/mL human FGF-10 (Thermo Fisher Scientific, cat. 100-26), 500 nM SB-431542 (Selleckchem, cat. S1067), and gastrin (Tocris, cat. 3006).
[…]

[1] = second compound 0.0316 µM, first compound 0.0316 µM
[2] = second compound 0.0316 µM, first compound 0.1 µM
[3] = second compound 0.0316 µM, first compound 0.316 µM
[4] = second compound 0.0316 µM, first compound 1 µM
[5] = second compound 0.0316 µM, first compound 3.16 µM
[6] = second compound 0.0316 µM, first compound 10 µM
[7] = second compound 0.1 µM, first compound 0.0316 µM
[8] = second compound 0.1 µM, first compound 0.1 µM
[9] = second compound 0.1 µM, first compound 0.316 µM
[10] = second compound 0.1 µM, first compound 1 µM
[11] = second compound 0.1 µM, first compound 3.16 µM
[12] = second compound 0.1 µM, first compound 10 µM
[13] = second compound 0.316 µM, first compound 0.0316 µM
[14] = second compound 0.316 µM, first compound 0.1 µM
[15] = second compound 0.316 µM, first compound 0.316 µM
[16] = second compound 0.316 µM, first compound 1 µM
[17] = second compound 0.316 µM, first compound 3.16 µM
[18] = second compound 0.316 µM, first compound 10 µM
[19] = second compound 1 µM, first compound 0.0316 µM
[20] = second compound 1 µM, first compound 0.1 µM
[21] = second compound 1 µM, first compound 0.316 µM
[22] = second compound 1 µM, first compound 1 µM
[23] = second compound 1 µM, first compound 3.16 µM
[24] = second compound 1 µM, first compound 10 µM
[25] = second compound 3.16 µM, first compound 0.0316 µM
[26] = second compound 3.16 µM, first compound 0.1 µM
[27] = second compound 3.16 µM, first compound 0.316 µM
[28] = second compound 3.16 µM, first compound 1 µM
[29] = second compound 3.16 µM, first compound 3.16 µM
[30] = second compound 3.16 µM, first compound 10 µM
[31] = second compound 10 µM, first compound 0.0316 µM
[32] = second compound 10 µM, first compound 0.1 µM
[33] = second compound 10 µM, first compound 0.316 µM
[34] = second compound 10 µM, first compound 1 µM
[35] = second compound 10 µM, first compound 3.16 µM
[36] = second compound 10 µM, first compound 10 µM
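Note: spheroids exposed to compounds for 7 days before readout.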
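Throughout, for viability, T/C: percent of vehicle DMSO control viability with 100% = untreated-like growth.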

COc1ccc([C@@H](O)c2cc(-c3ncnc4cc(N5CCOCC5)ccc34)c(F)cc2Cl)nn1 + CN(C)c1ccc(Nc2c3ccc(NC(=O)CCN4CCCC4)cc3nc3cc(NC(=O)CCN4CCCC4)ccc23)cc1
IC50 (second compound 0.0316 µM): > 10 µM
IC50 (second compound 0.1 µM): > 10 µM
IC50 (second compound 0.316 µM): 9.44 µM
IC50 (second compound 1 µM): > 10 µM
IC50 (second compound 3.16 µM): > 10 µM
IC50 (second compound 10 µM): > 10 µM
viability, T/C [1]: 96.4%
viability, T/C [2]: 92.5%
viability, T/C [3]: 80.6%
viability, T/C [4]: 71.3%
viability, T/C [5]: 81.7%
viability, T/C [6]: 64.9%
viability, T/C [7]: 89.2%
viability, T/C [8]: 75.3%
viability, T/C [9]: 95%
viability, T/C [10]: 72.8%
viability, T/C [11]: 86.2%
viability, T/C [12]: 60.1%
viability, T/C [13]: 89.1%
viability, T/C [14]: 81%
viability, T/C [15]: 76.4%
viability, T/C [16]: 78.2%
viability, T/C [17]: 82.1%
viability, T/C [18]: 48.3%
viability, T/C [19]: 81.2%
viability, T/C [20]: 83.2%
viability, T/C [21]: 97.6%
viability, T/C [22]: 62.4%
viability, T/C [23]: 77.4%
viability, T/C [24]: 66.6%
viability, T/C [25]: 87.3%
viability, T/C [26]: 83.8%
viability, T/C [27]: 81.2%
viability, T/C [28]: 85%
viability, T/C [29]: 102%
viability, T/C [30]: 61.3%
viability, T/C [31]: 89.3%
viability, T/C [32]: 72.6%
viability, T/C [33]: 90.1%
viability, T/C [34]: 74.5%
viability, T/C [35]: 76.4%
viability, T/C [36]: 79.4%

COc1ncnc(C2CC2)c1-c1ncc2cnn(Cc3ccc(-c4nc(C(F)(F)F)cn4C(C)C)cc3)c2n1 + CN(C)c1ccc(Nc2c3ccc(NC(=O)CCN4CCCC4)cc3nc3cc(NC(=O)CCN4CCCC4)ccc23)cc1
IC50 (second compound 0.0316 µM): > 10 µM
IC50 (second compound 0.1 µM): > 10 µM
IC50 (second compound 0.316 µM): > 10 µM
IC50 (second compound 1 µM): > 10 µM
IC50 (second compound 3.16 µM): > 10 µM
IC50 (second compound 10 µM): > 10 µM
viability, T/C [1]: 108%
viability, T/C [2]: 83.7%
viability, T/C [3]: 95.1%
viability, T/C [4]: 76.5%
viability, T/C [5]: 88.1%
viability, T/C [6]: 66.2%
viability, T/C [7]: 97.1%
viability, T/C [8]: 90.2%
viability, T/C [9]: 102%
viability, T/C [10]: 87.6%
viability, T/C [11]: 81.4%
viability, T/C [12]: 76.7%
viability, T/C [13]: 88.3%
viability, T/C [14]: 95.8%
viability, T/C [15]: 86.6%
viability, T/C [16]: 78.5%
viability, T/C [17]: 87.6%
viability, T/C [18]: 77.8%
viability, T/C [19]: 84.5%
viability, T/C [20]: 83.4%
viability, T/C [21]: 93%
viability, T/C [22]: 75.4%
viability, T/C [23]: 79.6%
viability, T/C [24]: 80.8%
viability, T/C [25]: 92.1%
viability, T/C [26]: 85.8%
viability, T/C [27]: 88.2%
viability, T/C [28]: 86.4%
viability, T/C [29]: 75%
viability, T/C [30]: 77.7%
viability, T/C [31]: 85.4%
viability, T/C [32]: 66.8%
viability, T/C [33]: 74.8%
viability, T/C [34]: 66.3%
viability, T/C [35]: 94.8%
viability, T/C [36]: 82.3%
